Experimental data from US20030022821A1, “Bioactive peptides” (priority 1998, published 2003).
Values after ≈ are worked out from the molar mass of the structure shown. Read-outs that look alike come from different tables or passages of the source. Square brackets hold non-standard residues; d marks the D form. Ends that are not written are not given here. Peptide text beside a SMILES is read from it. * marks the point of attachment. Trp(2-Pmc) = Cc1c(C)c(S(=O)(=O)c2[nH]c3ccccc3c2C[C@H](N)C(=O)O)c(C)c2c1OC(C)(C)CC2; Acm = CC(=O)NC*

Key:
[1] = test system: Staphylococcus aureus ATCC 25923; assay type: cell-based
Protocol: (§1) The bacterial strains used were: Escherichia coli ATCC 25922 and Staphylococcus aureus ATCC 25923. All strains were stored at −70° C. The bacteria were grown in 2% Bacto Peptone water (Difco 1807-17-4). All tests were performed with bacteria in mid-logarithmic growth phase. Determination of the minimum inhibitory concentration (MIC) of the peptides for bacterial strains were performed in 1% Bacto Peptone water. A standard microdilution technique with an inoculum of 2×10^6 CFU/ml was used. All assays were performed in triplets. Since the peptides are positively charged and therefore could adhere to the plastic wells, we controlled the actual concentration of the peptides in the solution by HPLC. There was no difference between the concentration of the peptides before or after adding the solution to the plastic wells.

[2] = test system: Escherichia coli ATCC 25922; assay type: cell-based
Protocol: as §1

| Molecule | MIC S. aureus ([1]; ATCC 25923) | MIC E. coli ([2]; ATCC 25922) | also measured |
| --- | --- | --- | --- |
| CSCC[C@H](NC(=O)[C@H](CCCNC(=N)N)NC(=O)[C@H](Cc1c[nH]c2ccccc12)NC(=O)[C@H](CCC(N)=O)NC(=O)[C@H](Cc1c[nH]c2ccccc12)NC(=O)[C@H](CCCNC(=N)N)NC(=O)[C@H](CCCNC(=N)N)NC(=O)[C@H](CSCNC(C)=O)NC(=O)[C@H](CCCCN)NC(=O)[C@@H](N)CCCCN)C(=O)N[C@@H](CCCCN)C(=O)N[C@@H](CCCCN)C(=O)N[C@@H](CC(C)C)C(=O)NCC(=O)N[C@@H](C)C(=O)O [LFB K1] (H-KKC(Acm)RRWQWRMKKLGA-OH; N-terminus assumed) | – | – | MIC S. aureus ATCC 25923 ([1]; ATCC 25923): 100 µg/mL; MIC S. aureus ATCC 25923 ([1]; Table 1, value in brackets): 50 µM; MIC S. aureus ([1]; Table 12): 100 µg/mL (≈ 48.9 µM); MIC E. coli ATCC 25922 ([2]; ATCC 25922): 60 µg/mL; MIC E. coli ATCC 25922 ([2]; Table 1, value in brackets): 30 µM; MIC E. coli ([2]; Table 12): 60 µg/mL (≈ 29.3 µM) |
| CSCC[C@H](NC(=O)[C@H](CCC(=O)O)NC(=O)[C@H](Cc1c[nH]c2ccccc12)NC(=O)[C@H](CCC(N)=O)NC(=O)[C@H](Cc1c[nH]c2ccccc12)NC(=O)[C@H](CCCNC(=N)N)NC(=O)[C@H](CC(C)C)NC(=O)[C@H](CSCNC(C)=O)NC(=O)[C@H](CCCCN)NC(=O)[C@@H](N)CCCNC(=N)N)C(=O)N[C@@H](CCCNC(=N)N)C(=O)N[C@@H](CCCCN)C(=O)N[C@@H](Cc1ccc(O)cc1)C(=O)NCC(=O)NCC(=O)O [LFM R1 W8 Y13] (H-RKC(Acm)LRWQWEMRKYGG-OH; N-terminus and C-terminus assumed) | 50 µg/mL (≈ 24.2 µM) | 50 µg/mL (≈ 24.2 µM) | – |
| CSCC[C@H](NC(=O)[C@H](CC(N)=O)NC(=O)[C@H](Cc1c[nH]c2ccccc12)NC(=O)[C@H](CCC(N)=O)NC(=O)[C@H](Cc1c[nH]c2ccccc12)NC(=O)[C@H](CCC(N)=O)NC(=O)[C@H](Cc1ccccc1)NC(=O)[C@H](CSCNC(C)=O)NC(=O)[C@H](CCCCN)NC(=O)[C@@H](N)[C@@H](C)O)C(=O)N[C@@H](CCCNC(=N)N)C(=O)N[C@@H](CCCCN)C(=O)N[C@H](C(=O)N[C@@H](CCCNC(=N)N)C(=O)NCC(=O)O)C(C)C [LFHW8, H2N-Thr-Lys-Cys-Phe-Gln-Trp-Gln-Trp-Asn-Met-Arg-Lys-Val-Arg-Gly-COOH] (H-TKC(Acm)FQWQWNMRKVRG-OH) | – | – | MIC S. aureus ([1]; Table 4, unit assumed): > 1000 µg/mL; MIC E. coli ([2]; Table 4): 110 µg/mL (≈ 53.9 µM) |
| LFH Pmc: human lactoferricin with Pmc attached to the only available tryptophan | – | – | MIC S. aureus ([1]; Table 5, unit assumed): 50 µg/mL; MIC E. coli ([2]; Table 5): 25 µg/mL |
| CSCC[C@H](NC(=O)[C@H](CCCNC(=N)N)NC(=O)[C@H](Cc1c(S(=O)(=O)c2c(C)c(C)c3c(c2C)CCC(C)(C)O3)[nH]c2ccccc12)NC(=O)[C@H](CCC(N)=O)NC(=O)[C@H](C)NC(=O)[C@H](CCCNC(=N)N)NC(=O)[C@H](CCCNC(=N)N)NC(=O)[C@H](CSCNC(C)=O)NC(=O)[C@H](CCCCN)NC(=O)[C@@H](N)Cc1ccccc1)C(=O)N[C@@H](CCCCN)C(=O)N[C@@H](CCCCN)C(=O)N[C@@H](CC(C)C)C(=O)NCC(=O)N[C@@H](C)C(=O)O [LFB A6 PMC] (H-FKC(Acm)RRAQ[Trp(2-Pmc)]RMKKLGA-OH) | 17.5 µg/mL (≈ 7.89 µM) | 25 µg/mL (≈ 11.3 µM) | – |
| CC[C@H](C)[C@H](NC(=O)[C@H](CCCCN)NC(=O)[C@H](Cc1c[nH]c2ccccc12)NC(=O)[C@H](CCC(N)=O)NC(=O)[C@H](Cc1c[nH]c2ccccc12)NC(=O)[C@H](CCC(N)=O)NC(=O)[C@H](CCCNC(=N)N)NC(=O)[C@H](CSCNC(C)=O)NC(=O)[C@H](CCCCN)NC(=O)[C@@H](N)CO)C(=O)N[C@@H](CCCNC(=N)N)C(=O)N[C@@H](CCCNC(=N)N)C(=O)N[C@H](C(=O)N[C@@H](CC(N)=O)C(=O)N1CCC[C@H]1C(=O)O)[C@@H](C)O [LFPW8] (H-SKC(Acm)RQWQWKIRRTNP-OH; N-terminus assumed) | – | – | MIC S. aureus ([1]; Table 4, unit assumed): > 1000 µg/mL; MIC E. coli ([2]; Table 4): 500 µg/mL (≈ 243 µM) |
| CSCC[C@H](NC(=O)[C@H](CCC(=O)O)NC(=O)[C@H](Cc1c[nH]c2ccccc12)NC(=O)[C@H](CCC(N)=O)NC(=O)[C@H](Cc1c[nH]c2ccccc12)NC(=O)[C@H](CCCNC(=N)N)NC(=O)[C@H](CC(C)C)NC(=O)[C@H](CSCNC(C)=O)NC(=O)[C@H](CCCCN)NC(=O)[C@@H](N)CCC(=O)O)C(=O)N[C@@H](CCCNC(=N)N)C(=O)N[C@@H](CCCCN)C(=O)N[C@@H](Cc1ccc(O)cc1)C(=O)NCC(=O)NCC(=O)O [LFM W8 Y13] (H-EKC(Acm)LRWQWEMRKYGG-OH; N-terminus and C-terminus assumed) | >1000 µg/mL | >1000 µg/mL | – |
| CSCC[C@H](NC(=O)[C@H](CCCNC(=N)N)NC(=O)[C@H](Cc1c[nH]c2ccccc12)NC(=O)[C@H](CCC(N)=O)NC(=O)[C@H](Cc1c[nH]c2ccccc12)NC(=O)[C@H](CCC(N)=O)NC(=O)[C@H](Cc1ccc(O)cc1)NC(=O)[C@H](CSCNC(C)=O)NC(=O)[C@H](CCCCN)NC(=O)[C@@H](N)CO)C(=O)N[C@@H](CCCNC(=N)N)C(=O)N[C@@H](CCCCN)C(=O)N[C@@H](CC(C)C)C(=O)NCC(=O)N[C@@H](C)C(=O)O [LFGW8, H2N-Ser-Lys-Cys-Tyr-Gln-Trp-Gln-Trp-Arg-Met-Arg-Lys-Leu-Gly-Ala-COOH] (H-SKC(Acm)YQWQWRMRKLGA-OH) | – | – | MIC S. aureus ([1]; Table 4, unit assumed): > 1000 µg/mL; MIC E. coli ([2]; Table 4): 500 µg/mL (≈ 248 µM) |
| TKCFQWQRNMRKVRG [Native LFH] | – | – | MIC S. aureus ([1]; Table 4, unit assumed): > 1000 µg/mL; MIC E. coli ([2]; Table 4): > 1000 µg/mL |
| RWWRYWR-NH2 [LFM 18-24 R1, 7 W2,3, 6Y5NH2, ARG-TRP-TRP-ARG-TYR-TRP-ARG-CONH2] | – | 10 µg/mL | MIC E. coli ([2]; Table 14, peptides with a proportion of D amino acids): 10 µg/mL |
| CSCC[C@H](NC(=O)[C@H](CCCNC(=N)N)NC(=O)[C@H](Cc1c[nH]c2ccccc12)NC(=O)[C@H](CCC(N)=O)NC(=O)[C@H](Cc1c[nH]c2ccccc12)NC(=O)[C@H](CCCNC(=N)N)NC(=O)[C@H](CC(C)C)NC(=O)[C@H](CSCNC(C)=O)NC(=O)[C@H](CCCCN)NC(=O)[C@@H](N)CCC(=O)O)C(=O)N[C@@H](CCCNC(=N)N)C(=O)N[C@@H](CCCCN)C(=O)N[C@@H](Cc1ccc(O)cc1)C(=O)NCC(=O)NCC(=O)O [LFM R9 W8 Y13] (H-EKC(Acm)LRWQWRMRKYGG-OH; N-terminus and C-terminus assumed) | 1000 µg/mL (≈ 483 µM) | 150 µg/mL (≈ 72.5 µM) | – |
| CSCC[C@H](NC(=O)[C@H](C)NC(=O)[C@H](Cc1c[nH]c2ccccc12)NC(=O)[C@H](CCC(N)=O)NC(=O)[C@H](Cc1c[nH]c2ccccc12)NC(=O)[C@H](CCCNC(=N)N)NC(=O)[C@H](CC(C)C)NC(=O)[C@H](CSCNC(C)=O)NC(=O)[C@H](CCCCN)NC(=O)[C@@H](N)CCC(=O)O)C(=O)N[C@@H](CCCNC(=N)N)C(=O)N[C@@H](CCCCN)C(=O)N[C@@H](Cc1ccc(O)cc1)C(=O)NCC(=O)NCC(=O)O [LFM A9 W8 Y13] (H-EKC(Acm)LRWQWAMRKYGG-OH; N-terminus and C-terminus assumed) | >1000 µg/mL | >1000 µg/mL | – |
| CSCC[C@H](NC(=O)[C@H](CCCNC(=N)N)NC(=O)[C@H](CCCNC(=N)N)NC(=O)[C@H](CCC(N)=O)NC(=O)[C@H](Cc1c[nH]c2ccccc12)NC(=O)[C@H](CCC(N)=O)NC(=O)[C@H](Cc1ccc(O)cc1)NC(=O)[C@H](CSCNC(C)=O)NC(=O)[C@H](CCCCN)NC(=O)[C@@H](N)CO)C(=O)N[C@@H](CCCNC(=N)N)C(=O)N[C@@H](CCCCN)C(=O)N[C@@H](CC(C)C)C(=O)NCC(=O)N[C@@H](C)C(=O)O [Native LFG, SKCYQWQRRMRKLGA] (H-SKC(Acm)YQWQRRMRKLGA-OH; N-terminus assumed) | – | – | MIC E. coli ([2]; Table 4): 750 µg/mL (≈ 378 µM) |

The next lines start with results.

| MIC S. aureus ([1]; ATCC 25923) | MIC E. coli ([2]; ATCC 25922) | Molecule | also measured |
| --- | --- | --- | --- |
| >200 µg/mL | – | CSCC[C@H](NC(=O)[C@H](CCCNC(=N)N)NC(=O)[C@H](Cc1c[nH]c2ccccc12)NC(=O)[C@H](CCC(N)=O)NC(=O)[C@H](Cc1c[nH]c2ccccc12)NC(=O)[C@H](CCCNC(=N)N)NC(=O)[C@H](C)NC(=O)[C@H](CSCNC(C)=O)NC(=O)[C@H](CCCCN)NC(=O)[C@@H](N)Cc1ccccc1)C(=O)N[C@@H](CCCCN)C(=O)N[C@@H](CCCCN)C(=O)N[C@@H](CC(C)C)C(=O)NCC(=O)N[C@@H](C)C(=O)O [LFB A4] (H-FKC(Acm)ARWQWRMKKLGA-OH) | – |
| >200 µg/mL | 50 µg/mL (≈ 24.9 µM) | CSCC[C@H](NC(=O)[C@H](CCCNC(=N)N)NC(=O)[C@H](Cc1c[nH]c2ccccc12)NC(=O)[C@H](CCC(N)=O)NC(=O)[C@H](Cc1c[nH]c2ccccc12)NC(=O)[C@H](CCCNC(=N)N)NC(=O)[C@H](CCCNC(=N)N)NC(=O)[C@H](CSCNC(C)=O)NC(=O)[C@H](CCCCN)NC(=O)[C@@H](N)Cc1ccccc1)C(=O)N[C@@H](CCCCN)C(=O)N[C@@H](C)C(=O)N[C@@H](CC(C)C)C(=O)NCC(=O)N[C@@H](C)C(=O)O [LFB A12] (H-FKC(Acm)RRWQWRMKALGA-OH) | – |
| >200 µg/mL | 120 µg/mL (≈ 60.6 µM) | CSCC[C@H](NC(=O)[C@H](CCCNC(=N)N)NC(=O)[C@H](Cc1c[nH]c2ccccc12)NC(=O)[C@H](CCC(N)=O)NC(=O)[C@H](Cc1c[nH]c2ccccc12)NC(=O)[C@H](C)NC(=O)[C@H](CCCNC(=N)N)NC(=O)[C@H](CSCNC(C)=O)NC(=O)[C@H](CCCCN)NC(=O)[C@@H](N)Cc1ccccc1)C(=O)N[C@@H](CCCCN)C(=O)N[C@@H](CCCCN)C(=O)N[C@@H](CC(C)C)C(=O)NCC(=O)N[C@@H](C)C(=O)O [LFB A5] (H-FKC(Acm)RAWQWRMKKLGA-OH) | – |
| >200 µg/mL | 55 µg/mL (≈ 27.8 µM) | CSCC[C@H](NC(=O)[C@H](C)NC(=O)[C@H](Cc1c[nH]c2ccccc12)NC(=O)[C@H](CCC(N)=O)NC(=O)[C@H](Cc1c[nH]c2ccccc12)NC(=O)[C@H](CCCNC(=N)N)NC(=O)[C@H](CCCNC(=N)N)NC(=O)[C@H](CSCNC(C)=O)NC(=O)[C@H](CCCCN)NC(=O)[C@@H](N)Cc1ccccc1)C(=O)N[C@@H](CCCCN)C(=O)N[C@@H](CCCCN)C(=O)N[C@@H](CC(C)C)C(=O)NCC(=O)N[C@@H](C)C(=O)O [LFB A9] (H-FKC(Acm)RRWQWAMKKLGA-OH) | – |
